# “Also recorded” adds a separate entry of the source. Counter-ions that a name gives are not always drawn.
# What was measured:
# [1] = Pharmacokinetic evaluation of hydrogelated liquid composition, subcutaneous administration to rats; type: in vivo, SD male rats; settings: 5 mg/kg
# Method: A compound 1 (3.5 mg), Kolliphor (registered trademark) P188 (200 mg), Kolliphor (registered trademark) P407 (150 mg) and purified water (1.0 mL) were mixed using a vortex mixer to obtain a liquid composition. Then, the above liquid composition was stored at 4° C. overnight to obtain a hydrogel.
# To evaluate the sustained-release ability of the hydrogelated liquid composition prepared in the above Example 11(a), the drug concentration in blood was measured over time after subcutaneous administration of the hydrogel or a compound 1 bulk powder to rats. Specifically, the hydrogel or the compound 1 bulk powder, at a dose of 5 mg/kg as an amount of the compound 1, was singly subcutaneously administered to SD male rats. After subcutaneous administration, blood was collected over time from the tail vein, and the blood was transferred into a micro test tube treated with heparin, and immediately cooled in ice. After cooling in ice, the blood was immediately centrifuged at 4° C. and 10,000 g for 10 minutes.
# In Table 10, pharmacokinetic parameter was expressed as mean±standard error (n=3 to 6).
# [2] = Forced decomposition test of compound 1 (heat, acid, base, oxidation, light; HPLC-PDA); type: physicochemical
# Method: A forced decomposition test of the compound 1 was performed under stress conditions of heat, acid, base, oxidation and light. A compound 1-containing solution was stored under the conditions shown in Table 4 below, and then the concentrations of the compound 1 and the decomposition products in the solution were measured using a high performance liquid chromatography-photodiode array detector (HPLC-PDA system). An incubator was used for heating, and a light resistance tester was used for irradiation with pseudo-sunlight in a photodecomposition test. The content of the compound 1 in the compound 1-containing solution produced was measured by the HPLC-PDA system, and the value thereof was regarded as the initial content.
# The content of D1 and D3 in the solution was represented by the proportion (% by area) of the peak area of each compound to the total peak area of HPLC analysis of the composition obtained after the decomposition test. Furthermore, the residual rate (% by mass) of the compound 1 was calculated by dividing the content after storage by the initial content using the absolute calibration method.
# (§1) Measurement of the residual rate of the compound 1 and the content of the decomposition products in the following Examples 3 to 9 was performed under the following conditions: • Analyzer: HPLC-PDA system: CBM-20Avp system controller, SIC-20ADvp autosampler, LC-20ADvp feed pump, DGU-20A degasser, CTO-20Avp column oven, SPD-M10Avp photodiode array detector, manufactured by Shimadzu Corporation • Column: Kinetex® Biphenyl […] (50×4.6 mm), manufactured by Shimadzu Corporation
# A compound 1 was metered, and Milli-Q water was added so that the compound 1 could be solubilized, thus obtaining an aqueous solution of the compound 1 (250 μM) so that the concentration of the compound 1 became 250 μM.
# The aqueous solution of the compound 1 thus obtained (250 μM) was heated at 60° C., followed by measurement using the HPLC-PDA system.
# The aqueous solution of the compound 1 obtained in Example 3 (250 μM) was heated under acid (0.1N HCl) conditions, followed by measurement of the decomposition products using the HPLC-PDA system. […] Addition of an acid decreased the production of D1 and promoted the production of D3.
# The aqueous solution of the compound 1 obtained in Example 3 (250 μM) was heated under base (0.1N NaOH) conditions, followed by measurement of the decomposition products using the HPLC-PDA system. […] Addition of a base promoted the production of D1. Other peaks (0.11% by area) were observed.
# The aqueous solution of the compound 1 obtained in Example 3 (250 μM) was stored under conditions of ordinary temperature and hydrogen peroxide (3 v/v %), followed by measurement of the decomposition products using the HPLC-PDA system.
# The aqueous solution of the compound 1 obtained in Example 3 (250 μM) was irradiated with pseudo-sunlight (250 W/m^2, 2 hours), followed by measurement of the decomposition products using the HPLC-PDA system. […] Therefore, it was confirmed that the aqueous solution of the compound 1 was photostable.
# phospholipase A2 = settings: known from Patent Document 1; cited from earlier work
# [3] = Solution stability of compound 1-containing liquid composition with VC added (heating to 60° C.); type: physicochemical; settings: VC 250, 500 or 2,500 μM, compound 1 250 μM, Tween 80 1.0 v/v %
# Method: as §1
# Effects of the amount of VC added on the solution stability of the compound 1 were investigated. Preparation was performed in the same manner as for the compound 1-containing liquid composition in Example 8 except that the concentration of VC was 250, 500 or 2,500 μM. The decomposition of the compound 1 and the production of D1 at the time of addition were evaluated (mean±standard error, n=3). After heating to 60° C., and the residual rate of the compound 1 and the content of D1 were evaluated over time, and the results are shown in FIG. 7. The residual rate (% by mass) of the compound 1 in the solution and the content (% by area) of D1 were calculated by the same calculation method as in Examples 3 to 8.
# [4] = Inhibition of decomposition of compound 1-containing liquid composition with antioxidant added (60° C., 48 hours); type: physicochemical; settings: compound 1 250 μM, Tween 80 1.0 v/v %, antioxidant 250 μM, 60° C. for 48 hours (FIG. 6)
# Method: In this test, an additive (antioxidant) that traps reactive oxygen species (ROS) was added to investigate the usefulness in the aqueous solution of the compound 1 for inhibition of decomposition under thermal conditions. A compound 1, Tween 80 and an antioxidant was metered, and Milli-Q water was added so that the concentration of the compound 1 and Tween 80 became 250 μM and 1.0 v/v %, respectively. Subsequently, four antioxidants were added so that each of the concentration thereof became 250 μM to obtain a compound 1-containing liquid composition with an antioxidant added. The content of D1 after the composition was heated at 60° C. for 48 hours was evaluated.
# [5] = clinical use as additive; cited from earlier work
# [6] = Heat: 60° C., 48 h, —: Undetected
# [7] = Oxidation: 3.0% H2O2, room temperature, 48 h
smiles,measurement,setting,value
"CCS(=O)(=O)Nc1ncc(C(F)(F)F)cc1NC(=O)C1CCCCC1 [Compound 1, N-(2-ethylsulfonylamino-5-trifluoromethyl-3-pyridyl)cyclohexanecarboxamide-monosodium salt-monohydrate]",Concentration in plasma at 12 hours after administration,[1],below the detection limit
same,Content of D3 after the forced decomposition test,"[2]; Acid: 0.1N HCl, 60° C., 48 h",16.18 % by area
same,"Other peaks (other than D1 and D3), maximum","[2]; Acid: 0.1N HCl, 60° C., 48 h",≤ 1.36 % by area
same,Residual rate of the compound 1 after the forced decomposition test,"[2]; Acid: 0.1N HCl, 60° C., 48 h",77.1 % by mass
same,Content of D1 after the forced decomposition test,"[2]; Acid: 0.1N HCl, 60° C., 48 h, —: Undetected",below the detection limit
same,Content of D1 after the forced decomposition test,"[2]; Base: 0.1N NaOH, 60° C., 48 h",17.62 % by area
same,Content of D3 after the forced decomposition test,"[2]; Base: 0.1N NaOH, 60° C., 48 h",0.50 % by area
same,Other peaks (other than D1 and D3),"[2]; Base: 0.1N NaOH, 60° C., 48 h",0.11 % by area
same,Residual rate of the compound 1 after the forced decomposition test,"[2]; Base: 0.1N NaOH, 60° C., 48 h",77.3 % by mass
same,Residual rate of the compound 1 after the forced decomposition test,"[2]; Heat: 250 μM aqueous solution, 60° C., 48 h",88.7 % by mass
same,Other peaks (other than D1 and D3),"[2]; Heat: 60° C., 48 h",No other peaks were detected
same,Content of D1 after the forced decomposition test,[2]; [6],8.08 % by area
same,Content of D3 after the forced decomposition test,[2]; [6],below the detection limit
same,Residual rate of the compound 1 after the forced decomposition test,"[2]; Light: pseudo-sunlight 250 W/m^2, room temperature, 2 h",97.4 % by mass
same,Content of D1 after the forced decomposition test,[2]; [7],0.30 % by area
same,Residual rate of the compound 1 after the forced decomposition test,[2]; [7],75.9 % by mass
same,Content of D3 after the forced decomposition test,"[2]; Oxidation: 3.0% H2O2, room temperature, 48 h, —: Undetected",below the detection limit
same,"Peaks other than D1 and D3, maximum","[2]; Oxidation: hydrogen peroxide 3 v/v %, ordinary temperature",≤ 1.79 % by area
same,Photostability of the aqueous solution (decomposition products after irradiation),"[2]; pseudo-sunlight 250 W/m^2, 2 hours",No decomposition product was detected; also recorded: photostable
CCS(=O)(=O)Nc1ncc(C(F)(F)F)cc1NC(=O)C1CCCCC1 [N-(2-ethylsulfonylamino-5-trifluoromethyl-3-pyridyl)cyclohexanecarboxamide],Inhibitory effect on phospholipase A2,phospholipase A2,has an inhibitory effect on phospholipase A2
"O=C1O[C@H]([C@@H](O)CO)C(O)=C1O [VC, L-ascorbic acid]",Residual rate of the compound 1 over time with VC added,[3]; 60° C. (FIG. 7A),increased depending on the concentration of VC added
same,Content of D1 over time with VC added,[3]; 60° C. (FIG. 7B),decreased depending on the concentration of VC added
same,Inhibition of decomposition of compound 1 / production of D1 by added antioxidant,[4],remarkably inhibited the production of D1
"N[C@@H](CS)C(=O)O [cysteine, L-Cysteine]",Maximum dose during intravenous injection,[5],8 mg
same,Inhibition of decomposition of compound 1 / production of D1 by added antioxidant,[4],remarkably inhibited the production of D1
